According to ChEMBL document CHEMBL1201862, “PubChem BioAssay data set” (2004):
Activity calls are given as the source filed them.

Tests used:
[1] = target: Beta-galactosidase (Escherichia coli, UniProt Q8VNN2); experiment: detection-enzyme interference by beta-gal modulators – biochemical, E. coli enzyme, set 3, artefact control for CCR6 antagonist project, dose response (AID 504712); assay type: functional
[2] = target: T1, Protein RecA (Mycobacterium tuberculosis, UniProt P9WHJ3); experiment: Fluorescence Cell-Free Homogeneous Dose Retest to Identify Inhibitors of RecA-Intein Splicing Activity. [Related pubchem assays (depositor defined):AID2097, AID2223, AID489010, AID492950]; assay type: functional
T1 sequence (P9WHJ3 whole entry): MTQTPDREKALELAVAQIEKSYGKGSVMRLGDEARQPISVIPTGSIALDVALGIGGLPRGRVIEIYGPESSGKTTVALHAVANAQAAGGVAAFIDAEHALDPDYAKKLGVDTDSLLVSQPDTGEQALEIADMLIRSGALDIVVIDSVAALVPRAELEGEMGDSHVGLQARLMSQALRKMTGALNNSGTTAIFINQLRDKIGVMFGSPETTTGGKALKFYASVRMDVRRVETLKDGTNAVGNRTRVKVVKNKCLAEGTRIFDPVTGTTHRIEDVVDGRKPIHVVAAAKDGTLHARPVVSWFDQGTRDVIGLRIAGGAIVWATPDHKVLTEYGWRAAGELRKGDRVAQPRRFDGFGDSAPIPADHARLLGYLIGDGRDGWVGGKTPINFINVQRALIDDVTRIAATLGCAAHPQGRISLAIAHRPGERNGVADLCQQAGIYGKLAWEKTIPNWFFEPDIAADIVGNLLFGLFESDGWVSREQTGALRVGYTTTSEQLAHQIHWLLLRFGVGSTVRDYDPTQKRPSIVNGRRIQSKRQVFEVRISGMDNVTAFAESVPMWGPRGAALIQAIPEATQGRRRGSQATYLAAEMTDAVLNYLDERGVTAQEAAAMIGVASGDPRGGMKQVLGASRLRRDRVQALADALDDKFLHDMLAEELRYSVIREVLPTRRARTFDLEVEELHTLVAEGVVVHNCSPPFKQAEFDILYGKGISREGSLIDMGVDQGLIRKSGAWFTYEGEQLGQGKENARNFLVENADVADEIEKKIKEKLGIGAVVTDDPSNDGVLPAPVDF

[3] = target: T2, Replicative DNA helicase DnaB (Mycobacterium tuberculosis, UniProt P9WMR3); experiment: DnaB intein splicing inhibitors, dose response, biochemical, cell-free fluorescence (AID 449749); assay type: functional
T2 sequence (P9WMR3 whole entry): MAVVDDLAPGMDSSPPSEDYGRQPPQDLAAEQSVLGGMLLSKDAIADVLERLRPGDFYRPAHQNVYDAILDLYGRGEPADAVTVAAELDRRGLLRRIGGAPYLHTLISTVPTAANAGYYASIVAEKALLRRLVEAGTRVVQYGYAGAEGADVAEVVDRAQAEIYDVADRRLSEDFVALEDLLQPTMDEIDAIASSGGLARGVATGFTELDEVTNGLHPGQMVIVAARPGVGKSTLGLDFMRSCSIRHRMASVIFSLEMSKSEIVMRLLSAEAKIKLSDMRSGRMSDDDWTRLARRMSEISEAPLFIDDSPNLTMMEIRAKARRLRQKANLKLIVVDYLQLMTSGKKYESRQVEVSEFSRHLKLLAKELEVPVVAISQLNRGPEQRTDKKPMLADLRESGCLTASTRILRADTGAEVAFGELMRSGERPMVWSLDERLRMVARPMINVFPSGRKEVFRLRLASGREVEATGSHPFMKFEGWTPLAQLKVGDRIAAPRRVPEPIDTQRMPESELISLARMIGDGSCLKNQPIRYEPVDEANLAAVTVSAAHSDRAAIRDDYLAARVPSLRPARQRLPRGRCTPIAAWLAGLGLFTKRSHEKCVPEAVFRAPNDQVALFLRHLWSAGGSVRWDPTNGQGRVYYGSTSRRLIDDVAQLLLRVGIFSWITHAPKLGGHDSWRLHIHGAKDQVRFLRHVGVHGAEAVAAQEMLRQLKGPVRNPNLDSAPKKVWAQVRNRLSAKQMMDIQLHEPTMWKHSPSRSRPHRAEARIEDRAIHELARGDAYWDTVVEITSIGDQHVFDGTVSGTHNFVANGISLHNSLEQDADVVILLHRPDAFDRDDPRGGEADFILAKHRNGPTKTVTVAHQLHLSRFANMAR

[4] = BJeHLT cell viability loss – BJeHLT cells, dry powder, counter-screen for Ras selective lethality project, dose response (AID 493052); assay type: functional, cell-based; details: Homo sapiens
[5] = HRAS-V12 fibroblast viability reduction – cell-based, Alamar Blue, dry powder, Ras selective lethality project, primary screen (AID 493045); assay type: functional; details: BJeLR
[6] = DRD BJ cell killing, Ras synthetic lethality – DRD BJ fibroblasts, HRASV12, dry powder, dose response (AID 493049); assay type: functional, cell-based
[7] = BJeH cell viability loss – BJeH cells, dry powder, counter-screen for Ras selective lethality project, dose response (AID 493054); assay type: functional, cell-based
[8] = target: Eukaryotic translation initiation factor 4H (Homo sapiens, UniProt Q15056); experiment: inhibitors of translation initiation factor eIF4H – SAR follow-up (AID 435011); assay type: functional
[9] = target: Polyadenylate-binding protein 1 (Homo sapiens, UniProt P11940); experiment: PABP inhibition in translation initiation, SAR follow-up (AID 435018); assay type: functional
[10] = target: T3, Probable nicotinate-nucleotide adenylyltransferase (Staphylococcus aureus (strain N315), UniProt P65502); assay type: functional, Staphylococcus aureus subsp. aureus N315; details: read-out: IC50_Mean;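 on IC50 Mean: confirmatory dose-response retesting of NadD inhibitor hits first found in an ultra-high-throughput screen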
[11] = viability of PTEN-deleted HCT116 cells – cell-based, HCT116 PTEN knockout, dose response (AID 1047); assay type: functional;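 further: HCT116 colon tumor cells with PTEN knocked out; cells exposed to compound for 60 hours before readout; potency for loss of cell viability measured by luminescence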
[12] = viability of HCT116 lacking mutant beta-catenin – cell-based, human colon tumor, dose response (AID 1045); assay type: functional;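 further: HCT116 colon tumor cells with beta catenin knocked out; cells exposed to compound for 60 hours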
[13] = tested on: INS1; experiment: INS-1E survival protection against cytokine death – cell-based, luminescence, retest, dose response (AID 449756); assay type: functional; details: Rattus norvegicus;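 further: cell death triggered by IL-1 beta plus TNF-alpha plus IFN-gamma mixture; protective hits raise ATP signal compared with cytokine alone wells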
[14] = target: T4, Caspase-3 (Homo sapiens, UniProt P42574); experiment: activation of caspase-3 zymogen – biochemical, absorbance, dose response (AID 489014)
T4 sequence (P42574 whole entry): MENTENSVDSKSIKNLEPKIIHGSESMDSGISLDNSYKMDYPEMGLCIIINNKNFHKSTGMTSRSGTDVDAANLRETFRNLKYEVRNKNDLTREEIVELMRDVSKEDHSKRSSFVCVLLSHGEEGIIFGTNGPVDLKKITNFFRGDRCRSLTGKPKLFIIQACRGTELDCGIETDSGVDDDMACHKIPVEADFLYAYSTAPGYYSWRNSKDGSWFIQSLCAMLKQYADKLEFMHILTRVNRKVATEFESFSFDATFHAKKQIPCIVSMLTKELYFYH

[15] = viability of uninfected HEp-2 cells – cell-based, HTS, cytotoxicity control for RSV inhibitor project, dose response (AID 2410); assay type: functional; details: human respiratory syncytial virus
[16] = target: T3, Probable nicotinate-nucleotide adenylyltransferase; assay type: functional, Staphylococcus aureus subsp. aureus N315
[17] = target: Caspase-7 (Homo sapiens, UniProt P55210); experiment: activation of caspase-7 zymogen – biochemical, absorbance, counter-screen for procaspase-3 activator project, dose response (AID 489013)
Sequence of Caspase-7 (P55210 24-198 limits assumed): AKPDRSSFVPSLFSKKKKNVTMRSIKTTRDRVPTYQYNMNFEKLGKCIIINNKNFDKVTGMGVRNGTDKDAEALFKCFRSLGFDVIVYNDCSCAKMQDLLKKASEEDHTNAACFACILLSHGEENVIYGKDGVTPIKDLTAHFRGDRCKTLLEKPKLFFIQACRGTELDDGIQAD
Sequence of Caspase-7 (P55210 207-303 limits assumed): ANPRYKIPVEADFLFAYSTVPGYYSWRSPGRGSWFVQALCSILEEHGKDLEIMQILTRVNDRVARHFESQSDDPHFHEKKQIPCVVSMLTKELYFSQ

T3 sequence (P65502 whole entry): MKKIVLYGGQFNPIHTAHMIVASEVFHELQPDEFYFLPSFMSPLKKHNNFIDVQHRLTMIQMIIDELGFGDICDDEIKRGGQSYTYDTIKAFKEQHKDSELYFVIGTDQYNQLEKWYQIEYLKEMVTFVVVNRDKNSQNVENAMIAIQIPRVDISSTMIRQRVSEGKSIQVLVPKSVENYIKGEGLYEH
Sequence of Polyadenylate-binding protein 1 (P11940 whole entry): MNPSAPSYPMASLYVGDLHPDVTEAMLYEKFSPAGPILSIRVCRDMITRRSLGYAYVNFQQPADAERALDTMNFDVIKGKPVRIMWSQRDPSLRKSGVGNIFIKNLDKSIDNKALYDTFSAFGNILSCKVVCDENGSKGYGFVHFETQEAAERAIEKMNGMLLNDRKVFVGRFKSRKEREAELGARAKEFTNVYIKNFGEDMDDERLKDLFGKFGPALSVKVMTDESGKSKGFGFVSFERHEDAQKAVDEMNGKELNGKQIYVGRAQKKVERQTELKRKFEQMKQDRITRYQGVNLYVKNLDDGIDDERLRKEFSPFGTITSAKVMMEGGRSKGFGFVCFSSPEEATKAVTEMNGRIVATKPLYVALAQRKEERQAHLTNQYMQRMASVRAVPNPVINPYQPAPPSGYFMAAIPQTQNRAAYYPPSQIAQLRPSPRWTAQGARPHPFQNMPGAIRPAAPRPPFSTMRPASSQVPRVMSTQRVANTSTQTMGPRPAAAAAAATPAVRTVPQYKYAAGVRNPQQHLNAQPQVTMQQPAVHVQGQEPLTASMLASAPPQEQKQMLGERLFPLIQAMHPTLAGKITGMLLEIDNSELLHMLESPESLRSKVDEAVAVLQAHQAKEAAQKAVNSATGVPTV
Sequence of Beta-galactosidase (Q8VNN2 whole entry): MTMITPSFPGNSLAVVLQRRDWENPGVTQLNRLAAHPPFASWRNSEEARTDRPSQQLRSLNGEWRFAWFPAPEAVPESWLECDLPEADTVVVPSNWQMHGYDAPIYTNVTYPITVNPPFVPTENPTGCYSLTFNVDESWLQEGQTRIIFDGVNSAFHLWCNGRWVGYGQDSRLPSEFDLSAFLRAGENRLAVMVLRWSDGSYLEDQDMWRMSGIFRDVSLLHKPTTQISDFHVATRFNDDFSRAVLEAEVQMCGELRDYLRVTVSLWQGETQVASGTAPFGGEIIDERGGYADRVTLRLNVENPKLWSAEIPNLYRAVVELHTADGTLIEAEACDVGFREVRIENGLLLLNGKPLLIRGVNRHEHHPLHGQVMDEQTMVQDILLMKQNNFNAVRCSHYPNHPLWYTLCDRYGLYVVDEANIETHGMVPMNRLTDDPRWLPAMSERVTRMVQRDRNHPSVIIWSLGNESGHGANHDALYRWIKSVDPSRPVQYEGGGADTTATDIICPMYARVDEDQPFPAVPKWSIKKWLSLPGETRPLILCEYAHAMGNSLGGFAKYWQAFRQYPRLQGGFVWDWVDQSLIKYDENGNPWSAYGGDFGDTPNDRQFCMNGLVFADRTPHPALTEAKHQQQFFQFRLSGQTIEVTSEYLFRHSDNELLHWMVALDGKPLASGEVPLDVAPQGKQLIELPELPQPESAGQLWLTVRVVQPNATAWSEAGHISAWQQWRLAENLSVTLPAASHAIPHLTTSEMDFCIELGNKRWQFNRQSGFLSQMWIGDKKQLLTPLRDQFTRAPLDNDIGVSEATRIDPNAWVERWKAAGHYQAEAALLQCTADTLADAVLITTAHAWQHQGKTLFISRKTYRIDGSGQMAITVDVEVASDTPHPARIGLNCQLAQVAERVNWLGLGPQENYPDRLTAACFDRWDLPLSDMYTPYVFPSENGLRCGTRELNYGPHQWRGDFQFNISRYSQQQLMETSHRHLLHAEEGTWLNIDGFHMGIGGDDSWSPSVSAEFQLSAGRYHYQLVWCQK

N#Cc1cc([N+](=O)[O-])c(-n2nnc3ccccc32)c([N+](=O)[O-])c1
IC50 [1]: > 66.6 µM (inactive)
EC50 [2]: 25.9 µM (active)
AC50 [3]: 7.31 µM (active)

COc1ccc(N(C(=O)CCl)C(C(=O)NCCc2ccccc2)C2CCCCC2)cc1Cl (configuration not stated)
AC50 [4]: 1.18 µM (active)
AC50 [5]: 505 nM (active)
AC50 [6]: 496 nM (active)
AC50 [7]: 1.48 µM (active)

Cc1ccc(NC(=O)C2CCN(C(=O)c3cccs3)CC2)cc1
IC50 [8]: > 100 µM (inactive)
IC50 [9]: > 100 µM (inactive)

C=CCn1/c(=N/C(=O)c2cc(-c3cccs3)nc3ccccc23)sc2cc(S(N)(=O)=O)ccc21
IC50 [10]: 21.6 µM (active)
EC50 [11]: 25.3 µM (active)
EC50 [12]: 30.1 µM (active)
AC50 [13]: 19.3 µM (active)
EC50 [14]: 3.26 µM (active)
CC50 [15]: 17.2 µM (active)
IC50 [16]: 11.5 µM (active)
EC50 [17]: > 3.16 µM (active)
